Experimental data as given in patent publication US11730743B2, “Protection of cells from degeneration and treatment of geographic atrophy” (University of Kentucky Research Foundation, priority 2012, dated 2023).

Legend:
Dicer1f/f mice = experiment: RPE degeneration induced by subretinal AAV1-BEST1-Cre (DICER1 loss); type: in vivo; conditions: inhibitor intravitreous
Procedure: Immunolabeling. Human eyes fixed in 2-4% paraformaldehyde were prepared as eyecups, cryoprotected in 30% sucrose, embedded in optimal cutting temperature compound (Tissue-Tek OCT; Sakura Finetek), and cryosectioned into 10 μm sections. Depigmentation was achieved using 0.25% potassium permanganate and 0.1% oxalic acid. Immunohistochemical staining was performed with the rabbit antibody against NLRP3 (1:100, Sigma Aldrich) or rabbit antibody against Caspase-1 (prediluted, AbCam). Isotype IgG was substituted for the primary antibody to assess the specificity of the staining. Bound antibody was detected with biotin-conjugated secondary antibodies, followed by incubation with ABC reagent and visualized by Vector Blue (Vector Laboratories). Levamisole (Vector Laboratories) was used to block endogenous alkaline phosphatase activity. Slides were washed in PBS, counterstained with neutral red (Fisher Scientific), rinsed with deionized water, air dried, and then mounted in Vectamount (Vector Laboratories). Fluorescent labeling of human tissue was performed with the rabbit antibody against PYCARD (1:50, Clone N-15, Santa Cruz Biotechnology). Immunolabeling was visualized by fluorescently conjugated anti-rabbit secondary antibody (Invitrogen). Tissue autofluorescence was quenched by incubating the sections in 0.3% Sudan black (Fisher Scientific). […]

wild-type mice = experiment: Laser-induced choroidal neovascularization; type: in vivo; conditions: intravitreous injection
Caspase-1 = target: T1, Caspase-1 (Homo sapiens, UniProt P29466); experiment: Caspase-1 activation in cultured cells (western blot p20, Caspalux1 substrate cleavage); type: cell-based; conditions: human RPE cells
T1 construct: endogenous in cells; host or cells: primary human RPE cells; also THP-1 and HeLa cells
T1 sequence (P29466 120-297 limits assumed): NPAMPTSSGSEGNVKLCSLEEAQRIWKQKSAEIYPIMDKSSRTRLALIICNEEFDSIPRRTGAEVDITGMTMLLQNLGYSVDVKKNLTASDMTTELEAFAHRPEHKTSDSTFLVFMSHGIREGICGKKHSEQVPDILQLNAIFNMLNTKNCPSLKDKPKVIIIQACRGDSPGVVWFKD
T1 sequence (P29466 317-404 limits assumed): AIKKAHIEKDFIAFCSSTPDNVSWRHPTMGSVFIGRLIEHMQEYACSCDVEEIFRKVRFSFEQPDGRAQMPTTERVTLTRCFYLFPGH
Procedure: Protein abundance and activity. Protein abundance was assessed by Western blot analysis using primary antibodies recognizing Caspase-1 (1:500; Invitrogen), pIRAK1 (1:500; Thermo Scientific), pIRAK4 (1:500, Abbomax, Inc), PYCARD (1:200, Santa Cruz Biotechnology), NLRP3 (1:500, Enzo Life Sciences) and Vinculin (1:1,000; Sigma-Aldrich). Caspase-1 activity was visualized using Caspalux1 E1D2 (OncoImmunin) reagent according to the manufacturer's instructions.
Western blotting. Tissues or cells were homogenized in lysis buffer (10 mM Tris base, pH 7.4, 150 mM NaCl, 1 mM EDTA, 1 mM EGTA, 1% Triton X-100, 0.5% NP-40, protease and phosphatase inhibitor cocktail (Roche)). Protein concentrations were determined using a Bradford assay kit (Bio-Rad) with bovine serum albumin as a standard. Proteins (40-100 μg) were run on NuPAGE Bis-Tris gels (Invitrogen) and transferred to Immun-Blot PVDF membranes (Bio-Rad). Cells were scraped in hot Laemmli buffer (62.5 mM Tris base, pH 6.8, 2% SDS, 5% 2-Mercaptoethanol, 10% Glycerol, 0.01% Bromophenol Blue). Samples were boiled and run on 4-20% NuPAGE Tris-Glycine gels (Invitrogen). The transferred membranes were blocked for 1 h at RT and incubated with antibodies against human Caspase-1 (1:500; Invitrogen), mouse Caspase1 (1:500; MBL), NLRP3 (1:1000; Enzo Life Sciences), PYCARD (1:1000, RayBiotech), phospho-IRAK1 (S376) (1:500, Thermo Scientific), phospho-IRAK4 (T345) (1:500, AbboMax), DICER1 (1:2,000; Bethyl), MyD88 (1:1,000; Cell Signaling), and mouse IL-18 (1:200; MBL) at 4° C. overnight. Protein loading was assessed by immunoblotting using an anti-Vinculin antibody (1:1,000; Sigma-Aldrich). The secondary antibodies were used (1:5,000) for 1 h at RT. […]
Caspase-1 activity. […] Caspalux1E1D2 signal was quantified reading the fluorescence (excitation 552 nm, emission 580 nm) using a Synergy 4 reader (Biotek). Quantification of fluorescence from images was performed by converting images into grayscale in Adobe Photoshop CS5, and measuring the integrated density of black and white images using ImageJ software (NIH) (Bogdanovich et al., 2008).

Q: “MyD88 inhibitory peptide: peptide inhibitor of MyD88 homodimerization IMG-2005 (IMGENEX)” was tested. Which “AAV1-BEST1-Cre-induced RPE degeneration” value (Dicer1f/f mice) did it give?
A: blocked

Q: And the laser-induced choroidal neovascularization (wild-type mice)?
A: reduced

Q: What about the “Alu RNA-induced fluorescent substrate cleavage (Caspase-1 activity)” value (Caspase-1; Caspalux1) of the same substance?
A: did not reduce

Q: What about the “Alu RNA-induced Caspase-1 cleavage (p20 subunit)” value (Caspase-1; western blot) of the same substance?
A: did not reduce
